Experimental data as given in patent EP0982027A1, “Taxoid derivatives for treating abnormal cell proliferation of the brain” (RHONE-POULENC RORER S.A., priority 1998, dated 2000).
Values joined by “and” are separate entries in the source; they are usually repeats but may differ in a detail not shown here. Equal values may be shown once. Read-outs that look alike come from different tables or passages of the source.

Experiment: in vivo
Set-up: species or system female C3H/HeN mice
Settings: mouse, 40 mg.kg^-1 i.v.; for AUC0-∞: mean level data
Description: Groups of female C3H/HeN mice received the product by the intravenous route as a bolus at a dose level of 40 mg.kg^-1 equivalent to 120 mg.m^-2. Blood and brain samples were obtained from all dosed animals sacrificed at intervals up to 72 hours post dose. Brain and corresponding plasma samples have been assayed for product Ia content by an LC-MS/MS assay.
• Formulation: 2.25 mg.ml^-1 solution containing 5 % Polysorbate 80, 5 % ethanol and 90 % of an aqueous 5 % glucose solution. […]
• Sampling : Blood by cardiac puncture and liver and brain by dissection after CO2 sacrifice • Sample Times : at 2, 5, 15, 30, 45 minutes, 1, 2, 4, 6, 8, 14, 24, 48 and 72 hours post dose.
Whole blood was collected into heparinised tubes and corresponding plasma samples were obtained by centrifugation and frozen immediately at -20°C. Tissues were blotted, weighed and frozen immediately at -20°C. All samples were dispatched frozen for analysis. Upon receipt, samples were stored frozen at approximately -18°C pending analysis.
• Detection: LC-MS/MS (Sciex API III plus) in turbo-ionspray mode
The following MS conditions were applied:
Column: 75 x 4.6 mm Supelcosil ABZ plus (3 µm). Mobile phase: Acetonitrile/methanol/ammonium acetate (10mM); 40/25/35 v/v/v. Flow rate : 1 ml.min^-1. Temperature : Ambient. Extraction : Plasma: Add 100 µl of acetonitrile to sample (50 µl). Vortex, centrifuge, remove supernatant, add 100 µl of mobile phase and inject 150 µl. Brain : Add 100 µl of acetonitrile to homogenised sample (100 mg of a 1:1 w/w brain with water homogenate) and vortex. Add 1ml of diethyl ether, vortex, centrifuge, remove organic layer and dry under N2. Reconstitute in 200 µl of mobile phase and inject 150 µl. Calibration standards: Plasma : Nine at concentrations of 5, 10, 20, 50, 100, 200, 300, 400 & 500 ng.ml^-1 (product Ia). Prepared by adding suitable aliquots of the product (concentrations = 0.1, 1 or 10 µg.ml^-1) in ethanol to 0.5 ml aliquots of mouse plasma. Each sample was vortexed following drug addition; a 50 µl aliquot was then removed for assay. Brain : Eleven at concentrations of 10, 20, 30, 100, 200, 300, 400, 500, 1000, 2500 & 5000 ng.g^-1 in homogenised mouse brain (1:1 w/w brain with water). Prepared by adding suitable aliquots of the product (concentrations = 1, 10 or 100 µg.ml^-1) in ethanol to 0.5, 1, 3 or 4 g of homogenised mouse brain. Each sample was vortexed following drug addition and a 100 mg aliquot was then removed for assay. Retention times: Drug; product Ia: ∼2.3 min. Extraction efficiency : Plasma : ca.58 % at 200 ng.ml^-1. Brain : ca.41 % at 500 ng.g^-1 and 39 % at 1000 ng.g^-1.
A biexponential equation was fitted to the profiles using an interactive linear least-square algorithm as part of the SIPHAR package.
AUC0-∞: Area under the plasma or brain concentration versus time curve from t=0 (start of infusion) to infinity. Initial T1/2: Initial (distribution) half-life. Terminal T1/2: Terminal (elimination) half-life (should be regarded as an estimate only being dependent on sampling frequency in the terminal phase and assay sensitivity). ClT: Total plasma clearance. Vdss: Volume of distribution at steady state. n.a.: Not applicable.

CO[C@H]1C(=O)[C@]2(C)[C@@H](OC)C[C@H]3OC[C@@]3(OC(C)=O)[C@H]2[C@H](OC(=O)c2ccccc2)[C@]2(O)C[C@H](OC(=O)[C@H](O)[C@@H](NC(=O)OC(C)(C)C)c3ccccc3)C(C)=C1C2(C)C [product Ia, 4α-acetoxy-2α-benzoyloxy-5β,20-epoxy-1β-hydroxy-7β,10β-dimethoxy-9-oxo-11-taxen-13α-yl (2R,3S)-3 tert-butoxycarbonylamino-2-hydroxy-3-phenylpropionate]
AUC0-∞ (Brain, extrapolated from 72h to infinity): 788 h.µg.g^-1 and 787.8* h.µg.g^-1
ClT (Plasma#, calculated from values ≥ b.l.q. of 20 ng.ml^-1): 21.7 mL/min/kg
ClT (Plasma+, calculated from values ≥ l.o.d. of 4 ng.ml^-1): 21.7 mL/min/kg
AUC0-∞ (Plasma+, calculated from values ≥ l.o.d. of 4 ng.ml^-1, listed as product Ic, 40 mg/kg): 30.0 µg·h/mL
Cmax at 14 h (brain, iv, at 14h, read-out: brain peak levels): 9100 ng/g
half-life (iv, Brain, read-out: Terminal T1/2 (converted)): 31.4 h
clearance (iv, Plasma+, calculated from values ≥ l.o.d. of 4 ng.ml^-1, read-out: ClT (converted)): 21.7 mL/min/kg
time post dose up to which plasma levels were consistently above the limit of detection (limit 4 ng.ml^-1): up to 24 h
time post dose up to which plasma levels persisted above the limit of accurate quantification (limit 20 ng.ml^-1): up to 14 h
Plasma product Ic concentration (2 min after dose, individual animals IV1-IV4, 40 mg/kg, 2 min): 45942 ng/mL and 49607 ng/mL and 38994 ng/mL
Brain product Ic concentration (2 min after dose, individual animals IV1-IV4, listed as product Ic, 40 mg/kg, 2 min): 8817 ng/g and 8147 ng/g and 7630 ng/g
Plasma product Ic concentration (5 min after dose, individual animals IV1-IV4, 40 mg/kg, 5 min): 33538 ng/mL and 32077 ng/mL and 34903 ng/mL
Brain product Ic concentration (5 min after dose, individual animals IV1-IV4, listed as product Ic, 40 mg/kg, 5 min): 8473 ng/g and 7762 ng/g and 8091 ng/g
Plasma product Ic concentration (15 min after dose, individual animals IV1-IV4, 40 mg/kg, 15 min): 20897 ng/mL and 21051 ng/mL and 19459 ng/mL
Brain product Ic concentration (15 min after dose, individual animals IV1-IV4, listed as product Ic, 40 mg/kg, 15 min): 7100 ng/g and 7641 ng/g and 6481 ng/g
Plasma product Ic concentration (0.5h after dose, individual animals IV1-IV4, 40 mg/kg, 30 min): 10344 ng/mL and 9170 ng/mL and 11232 ng/mL
Brain product Ic concentration (0.5h after dose, individual animals IV1-IV4, listed as product Ic, 40 mg/kg, 30 min): 6788 ng/g and 8317 ng/g and 6894 ng/g
Plasma product Ic concentration (0.75h after dose, individual animals IV1-IV4, 40 mg/kg, 45 min): 10948 ng/mL and 8121 ng/mL and 10148 ng/mL
Brain product Ic concentration (0.75h after dose, individual animals IV1-IV4, listed as product Ic, 40 mg/kg, 45 min): 8086 ng/g and 7513 ng/g and 7272 ng/g
Plasma product Ic concentration (1h after dose, individual animals IV1-IV4, 40 mg/kg, 60 min): 7423 ng/mL and 6693 ng/mL and 6079 ng/mL
Brain product Ic concentration (1h after dose, individual animals IV1-IV4, listed as product Ic, 40 mg/kg, 60 min): 6424 ng/g and 8964 ng/g and 1747 ng/g and 7489 ng/g
Brain product Ic concentration (2h after dose, individual animals IV1-IV4, listed as product Ic, 40 mg/kg, 120 min): 8418 ng/g and 6966 ng/g and 7017 ng/g
Plasma product Ic concentration (4h after dose, individual animals IV1-IV4, 40 mg/kg, 240 min): 1110 ng/mL and 835 ng/mL and 830 ng/mL
Brain product Ic concentration (4h after dose, individual animals IV1-IV4, listed as product Ic, 40 mg/kg, 240 min): 6939 ng/g and 6712 ng/g and 5459 ng/g
Plasma product Ic concentration (6h after dose, individual animals IV1-IV4, 40 mg/kg, 360 min): 316 ng/mL and 346 ng/mL and 336 ng/mL
Brain product Ic concentration (6h after dose, individual animals IV1-IV4, listed as product Ic, 40 mg/kg, 360 min): 6688 ng/g and 7968 ng/g and 7350 ng/g and 3712 ng/g
Plasma product Ic concentration (8h after dose, individual animals IV1-IV4, 40 mg/kg, 480 min): 199 ng/mL and 195 ng/mL and 154 ng/mL
Brain product Ic concentration (8h after dose, individual animals IV1-IV4, listed as product Ic, 40 mg/kg, 480 min): 6977 ng/g and 8616 ng/g and 8342 ng/g
Plasma product Ic concentration (14h after dose, individual animals IV1-IV4, 40 mg/kg, 840 min): 56 ng/mL and 50 ng/mL and 52 ng/mL
Brain product Ic concentration (14h after dose, individual animals IV1-IV4, listed as product Ic, 40 mg/kg, 840 min): 10049 ng/g and 7595 ng/g and 9271 ng/g
Brain product Ic concentration (24 h after dose, individual animals IV1-IV4, listed as product Ic, 40 mg/kg, 1440 min): 9842 ng/g and 7885 ng/g and 9052 ng/g
Plasma product Ic concentration (24 h after dose, individual animals IV1-IV4, values flagged blq (below limit of accurate quantification, 20 ng.ml^-1), 40 mg/kg, 1440 min): 15(blq) ng.ml^-1 (2×) and 16(blq) ng.ml^-1
Plasma product Ic concentration (48 h after dose, individual animals IV1-IV4, blq = below 20 ng.ml^-1, n.d. = not detected (≤ l.o.d. of 4 ng.ml^-1)): 4(blq) ng.ml^-1
Brain product Ic concentration (48 h after dose, individual animals IV1-IV4, listed as product Ic, 40 mg/kg, 2880 min): 8541 ng/g and 7704 ng/g and 7986 ng/g
Brain product Ic concentration (72 h after dose, individual animals IV1-IV4, listed as product Ic, 40 mg/kg, 4320 min): 5511 ng/g and 5692 ng/g and 3894 ng/g
Plasma product Ic concentration (time after dose printed as '-' (line between 1h and 4h), MEAN): 4283 ng/mL
Plasma product Ic concentration (time after dose printed as '-' (line between 1h and 4h), individual animals IV1-IV4, 40 mg/kg): 4633 ng/mL and 4337 ng/mL and 4600 ng/mL and 3564 ng/mL
concentration at 2 min (brain, iv, 40 mg/kg, 2 min after dose, MEAN, read-out: Brain product Ic concentration): 7890 ng/g
concentration at 2 min (brain, iv, 40 mg/kg, 2 min after dose, individual animals IV1-IV4, read-out: Brain product Ic concentration): 6960 ng/g
concentration at 5 min (brain, iv, 40 mg/kg, 5 min after dose, MEAN, read-out: Brain product Ic concentration): 8170 ng/g
concentration at 5 min (brain, iv, 40 mg/kg, 5 min after dose, individual animals IV1-IV4, read-out: Brain product Ic concentration): 8340 ng/g
concentration at 0.25 h (brain, iv, 40 mg/kg, 15 min after dose, MEAN, read-out: Brain product Ic concentration): 6760 ng/g
concentration at 0.25 h (brain, iv, 40 mg/kg, 15 min after dose, individual animals IV1-IV4, read-out: Brain product Ic concentration): 5810 ng/g
concentration at 0.5 h (brain, iv, 40 mg/kg, 0.5h after dose, MEAN, read-out: Brain product Ic concentration): 7320 ng/g
concentration at 0.5 h (brain, iv, 40 mg/kg, 0.5h after dose, individual animals IV1-IV4, read-out: Brain product Ic concentration): 7260 ng/g
concentration at 0.75 h (brain, iv, 40 mg/kg, 0.75h after dose, MEAN, read-out: Brain product Ic concentration): 7640 ng/g
concentration at 0.75 h (brain, iv, 40 mg/kg, 0.75h after dose, individual animals IV1-IV4, read-out: Brain product Ic concentration): 7680 ng/g
concentration at 1 h (brain, iv, 40 mg/kg, 1h after dose, MEAN, read-out: Brain product Ic concentration): 6160 ng/g
concentration at 2 h (brain, iv, 40 mg/kg, 2h after dose, MEAN, read-out: Brain product Ic concentration): 7590 ng/g
concentration at 2 h (brain, iv, 40 mg/kg, 2h after dose, individual animals IV1-IV4, read-out: Brain product Ic concentration): 7960 ng/g
concentration at 4 h (brain, iv, 40 mg/kg, 4h after dose, MEAN, read-out: Brain product Ic concentration): 6760 ng/g
